# Test results as given in US9814727B2, “Piperazine phenothiazine derivatives for treating spasticity” (UNIVERSITE D'AIX-MARSEILLE, priority 2014, dated 2017).
# Test system: paw withdrawal threshold
# Assay: Von Frey test following spinal cord injury (mechanical hyperalgesia)
# Assay type: in vivo, rat
# Conditions: for effect on mechanical hyperalgesia (paw withdrawal threshold): 21 days after injury
# Protocol: Thoracic spinal unilateral hemisection in rats was used as a model of SCI. Adult female Wistar Rats (Charles River) were anaesthetized intraperitoneally with 50 mg/kg ketamine (Imalgen®, Merial, Duluth, Ga., USA) and 0.25 mg/kg Medetomidine (Domitor®, Janssen Pharmaceutica, Beerse, Belgium). The antibiotic Amoxycyline (Duphamox LA®, Pfizer, 150 mg/kg) was injected subcutaneously before the surgery. The skin was cut longitudinally over T8-T10 vertebra and a local anesthetic (2% Procaine hydrochloride, Pharmy H, Saint-Germain-en-Laye, France) was injected intramuscularly before cuting the paravertebral muscles. A laminectomy was performed at vertebral segment T9. The spinal cord was hemisected on the left side with microscissors at the level of the T8 spinal segment. Finally, paravertebral muscles and skin were sutured and rats were treated with buprenorphine for analgesia (1 injection before awakening from anaesthesia and 2 more injections over the next 24 h period). Aspirin was diluted in their water bottles for 3 days (aspegic, 200 mg in 150 ml). The rats weight, temperature and water intake were checked and their bladder was emptied manually twice a day until recovery of autonomy.
# At day 21 post lesion, the rats were tested once with Von Frey hair and plantar test in order to have their baseline values. […] Then the effects of the drug was measured alternatively on mechanical and thermal hyperalgesia every 15 min, that is at […] after injection, respectively.
# The plantar surface of the left, then right hind paws were probed using von Frey monofilaments £Bioseb, Paris, France) which apply different calibrated forces when they bent. The test started by applying a Von Frey hair of 8 g for 3 sec, and the 50% withdrawal thresholds of each hindlimb in response to tactile stimulation were measured using the up and down method (Chaplan et al., 1994).
structure (smiles),measurement,setting,value
"CN1CCN(CCCN2c3ccccc3Sc3ccc(Cl)cc32)CC1 [compound 2, 2-chloro-10-[3-(4-methyl-1-piperazinyl)propyl]-10H-phenothiazine]",time after injection at which effects were significant,"i.p. or i.v., Von Frey test",40 min
same,effect on mechanical hyperalgesia (paw withdrawal threshold),intraperitoneally 2 mg/kg,temporarily reduces mechanical hyperalgesia
same,effect on mechanical hyperalgesia (paw withdrawal threshold),intravenously 50 ng/kg,temporarily reduces mechanical hyperalgesia
